According to patent US9018175B2 (Takeda GmbH, priority 2009, dated 2015):

Tests used:
[1] = molecular target: T1, PDE4B1 (Homo sapiens, UniProt Q07343); assay: Inhibition of PDE4B1 activity (SPA, [3H]cAMP); format: biochemical; conditions: recombinant PDE4B1 expressed in SF21 cells; 0.5 pM [sic] cAMP; values given as bins; read-out: PDE4B1 inhibitory values measured as −logIC50 (converted)
T1 construct: made in house; host or cells: SF21 insect cells (baculovirus; pCR-Bac vector)
Summary of the method: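 Recombinant human PDE4B1 (Sf21 cell 1000 g supernatant) in 20 mM Tris pH 7.4, 0.1 mg/ml BSA, 5 mM Mg2+, […] with [3H]cAMP tracer, enzyme giving 10-20% conversion. After 5 min preincubation at 37 °C, 15 min reaction, stopped by SPA beads with IBMX; IC50 by non-linear regression.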

[2] = molecular target: T2, human PDE5 (Homo sapiens, UniProt O76074); assay: Inhibition of PDE5 activity (SPA, [3H]cGMP, platelet lysate); format: biochemical; conditions: PDE5 from human platelet lysate; values given as bins; read-out: PDE5A inhibitory values measured as −logIC50 (converted)
T2 construct: from tissue; host or cells: human platelets from fresh donor blood (10,000 g supernatant of sonicated platelets)
Summary of the method: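 Human platelet lysate served as PDE5 source, with 1 μM motapizone and 10 nM PDE2 inhibitor present; […] plus [3H]cGMP tracer, pH 7.4, 5 mM Mg2+, 10-20% substrate turnover. After 5 min preincubation, 15 min at 37 °C, stopped with SPA beads and IBMX; IC50 by non-linear regression.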

T1 sequence (Q07343 whole entry): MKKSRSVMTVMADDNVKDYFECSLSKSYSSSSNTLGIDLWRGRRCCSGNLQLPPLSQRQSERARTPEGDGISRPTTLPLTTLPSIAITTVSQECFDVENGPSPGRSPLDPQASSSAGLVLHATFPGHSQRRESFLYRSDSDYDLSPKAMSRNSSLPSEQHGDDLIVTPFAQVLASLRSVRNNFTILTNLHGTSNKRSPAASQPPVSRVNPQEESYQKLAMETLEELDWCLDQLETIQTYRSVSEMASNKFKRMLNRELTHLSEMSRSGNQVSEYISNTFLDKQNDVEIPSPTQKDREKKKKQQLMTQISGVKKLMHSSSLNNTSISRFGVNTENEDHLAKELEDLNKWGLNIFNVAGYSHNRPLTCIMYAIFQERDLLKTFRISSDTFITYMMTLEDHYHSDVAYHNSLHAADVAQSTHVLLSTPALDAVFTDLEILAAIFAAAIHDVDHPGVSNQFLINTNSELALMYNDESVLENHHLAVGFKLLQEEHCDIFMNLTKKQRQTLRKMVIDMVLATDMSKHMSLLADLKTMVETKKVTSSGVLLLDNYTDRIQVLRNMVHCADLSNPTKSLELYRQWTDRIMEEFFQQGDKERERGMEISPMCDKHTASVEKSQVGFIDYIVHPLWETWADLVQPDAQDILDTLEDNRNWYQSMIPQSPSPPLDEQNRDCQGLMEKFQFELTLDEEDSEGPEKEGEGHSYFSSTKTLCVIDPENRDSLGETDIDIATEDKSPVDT

| Compound | IC50 [1] [nM] | IC50 [2] [nM] |
| --- | --- | --- |
| CCOc1cc2c(cc1OC)C(c1ccc(C(=O)N3CCC(n4c(=O)c5sc(-c6ccc7c(c6)OCO7)cc5n(Cc5nnn(CC)n5)c4=O)CC3)cc1)=N[C@@H]1CCSC[C@H]21 [Example 30, 6-(1,3-benzodioxol-5-yl)-3-[1-({4-[(4aR,10bR)-9-ethoxy-8-methoxy-3,4,4a,10b-tetrahydro-1H-thiopyrano[4,3-c]isoquinolin-6-yl]phenyl}carbonyl)piperidin-4-yl]-1-[(2-ethyl-2H-tetrazol-5-yl)methyl]thieno[3,2-d]pyrimidine-2,4(1H,3H)-dione] | 1 to 10 | < 10 |
| CCOc1cc2c(cc1OC)C(c1cccc(C(=O)N3CCC(n4c(=O)c5sc(-c6ccc7c(c6)OCO7)cc5n(Cc5nnn(CC)n5)c4=O)CC3)c1)=N[C@@H]1CCSC[C@H]21 [Example 31, 6-(1,3-benzodioxol-5-yl)-3-[1-({3-[(4aR,10bR)-9-ethoxy-8-methoxy-3,4,4a,10b-tetrahydro-1H-thiopyrano[4,3-c]isoquinolin-6-yl]phenyl}carbonyl)piperidin-4-yl]-1-[(2-ethyl-2H-tetrazol-5-yl)methyl]thieno[3,2-d]pyrimidine-2,4(1H,3H)-dione] | > 10 | < 10 |
| CCOc1cc2c(cc1OC)C(c1ccc(C(=O)N3CCC(n4c(=O)c5sc(-c6ccc(F)cc6OC)cc5n(Cc5nnn(CC)n5)c4=O)CC3)cc1)=N[C@@H]1CCSC[C@H]21 [Example 32, 3-[1-({4-[(4aR,10bR)-9-ethoxy-8-methoxy-3,4,4a,10b-tetrahydro-1H-thiopyrano[4,3-c]isoquinolin-6-yl]phenyl}carbonyl)piperidin-4-yl]-1-[(2-ethyl-2H-tetrazol-5-yl)methyl]-6-(4-fluoro-2-methoxyphenyl)thieno[3,2-d]pyrimidine-2,4(1H,3H)-dione] | 1 to 10 | < 10 |
| CCOc1cc2c(cc1OC)C(c1cccc(C(=O)N3CCC(n4c(=O)c5sc(-c6ccc(F)cc6OC)cc5n(Cc5nnn(CC)n5)c4=O)CC3)c1)=N[C@@H]1CCSC[C@H]21 [Example 33, 3-[1-({3-[(4aR,10bR)-9-ethoxy-8-methoxy-3,4,4a,10b-tetrahydro-1H-thiopyrano[4,3-c]isoquinolin-6-yl]phenyl}carbonyl)piperidin-4-yl]-1-[(2-ethyl-2H-tetrazol-5-yl)methyl]-6-(4-fluoro-2-methoxyphenyl)thieno[3,2-d]pyrimidine-2,4(1H,3H)-dione] | > 10 | 10 to 100 |
| CCOc1cc2c(cc1OC)C(c1ccc(C(=O)N3CCC(n4c(=O)c5sc(-c6cc(F)ccc6OC)cc5n(Cc5nnn(CC)n5)c4=O)CC3)cc1)=N[C@@H]1CCSC[C@H]21 [Example 34, 3-[1-({4-[(4aR,10bR)-9-ethoxy-8-methoxy-3,4,4a,10b-tetrahydro-1H-thiopyrano[4,3-c]isoquinolin-6-yl]phenyl}carbonyl)piperidin-4-yl]-1-[(2-ethyl-2H-tetrazol-5-yl)methyl]-6-(5-fluoro-2-methoxyphenyl)thieno[3,2-d]pyrimidine-2,4(1H,3H)-dione] | > 10 | 10 to 100 |
| CCOc1cc2c(cc1OC)C(c1cccc(C(=O)N3CCC(n4c(=O)c5sc(-c6cc(F)ccc6OC)cc5n(Cc5nnn(CC)n5)c4=O)CC3)c1)=N[C@@H]1CCSC[C@H]21 [Example 35, 3-[1-({3-[(4aR,10bR)-9-ethoxy-8-methoxy-3,4,4a,10b-tetrahydro-1H-thiopyrano[4,3-c]isoquinolin-6-yl]phenyl}carbonyl)piperidin-4-yl]-1-[(2-ethyl-2H-tetrazol-5-yl)methyl]-6-(5-fluoro-2-methoxyphenyl)thieno[3,2-d]pyrimidine-2,4(1H,3H)-dione] | 1 to 10 | < 10 |
| CCOc1cc2c(cc1OC)C(c1ccc(C(=O)N3CCC(n4c(=O)c5sc(-c6cc(OC)ccc6OC)cc5n(Cc5nnn(CC)n5)c4=O)CC3)cc1)=N[C@@H]1CCSC[C@H]21 [Example 36, 6-(2,5-dimethoxyphenyl)-3-[1-({4-[(4aR,10bR)-9-ethoxy-8-methoxy-3,4,4a,10b-tetrahydro-1H-thiopyrano[4,3-c]isoquinolin-6-yl]phenyl}carbonyl)piperidin-4-yl]-1-[(2-ethyl-2H-tetrazol-5-yl)methyl]thieno[3,2-d]pyrimidine-2,4(1H,3H)-dione] | > 10 | < 10 |
| CCOc1cc2c(cc1OC)C(c1cccc(C(=O)N3CCC(n4c(=O)c5sc(-c6cc(OC)ccc6OC)cc5n(Cc5nnn(CC)n5)c4=O)CC3)c1)=N[C@@H]1CCSC[C@H]21 [Example 37, 6-(2,5-dimethoxyphenyl)-3-[1-({3-[(4aR,10bR)-9-ethoxy-8-methoxy-3,4,4a,10b-tetrahydro-1H-thiopyrano[4,3-c]isoquinolin-6-yl]phenyl}carbonyl)piperidin-4-yl]-1-[(2-ethyl-2H-tetrazol-5-yl)methyl]thieno[3,2-d]pyrimidine-2,4(1H,3H)-dione] | > 10 | < 10 |
| CCOc1cc2c(cc1OC)C(c1ccc(C(=O)N3CCC(n4c(=O)c5sc(-c6ccccc6F)cc5n(Cc5nnn(CC)n5)c4=O)CC3)cc1)=N[C@@H]1CCSC[C@H]21 [Example 38, 3-[1-({4-[(4aR,10bR)-9-ethoxy-8-methoxy-3,4,4a,10b-tetrahydro-1H-thiopyrano[4,3-c]isoquinolin-6-yl]phenyl}carbonyl)piperidin-4-yl]-1-[(2-ethyl-2H-tetrazol-5-yl)methyl]-6-(2-fluorophenyl)thieno[3,2-d]pyrimidine-2,4(1H,3H)-dione] | > 10 | < 10 |
| CCOc1cc2c(cc1OC)C(c1cccc(C(=O)N3CCC(n4c(=O)c5sc(-c6ccccc6F)cc5n(Cc5nnn(CC)n5)c4=O)CC3)c1)=N[C@@H]1CCSC[C@H]21 [Example 39] | 1 to 10 | < 10 |
| CCOc1cc2c(cc1OC)C(c1ccc(C(=O)N3CCC(n4c(=O)c5sc(-c6ccc(F)cc6)cc5n(Cc5nnn(CC)n5)c4=O)CC3)cc1)=N[C@@H]1CCSC[C@H]21 [Example 40, 3-[1-({4-[(4aR,10bR)-9-ethoxy-8-methoxy-3,4,4a,10b-tetrahydro-1H-thiopyrano[4,3-c]isoquinolin-6-yl]phenyl}carbonyl)piperidin-4-yl]-1-[(2-ethyl-2H-tetrazol-5-yl)methyl]-6-(4-fluorophenyl)thieno[3,2-d]pyrimidine-2,4(1H,3H)-dione] | > 10 | < 10 |
| CCOc1cc2c(cc1OC)C(c1cccc(C(=O)N3CCC(n4c(=O)c5sc(-c6ccc(F)cc6)cc5n(Cc5nnn(CC)n5)c4=O)CC3)c1)=N[C@@H]1CCSC[C@H]21 [Example 41, 3-[1-({3-[(4aR,10bR)-9-ethoxy-8-methoxy-3,4,4a,10b-tetrahydro-1H-thiopyrano[4,3-c]isoquinolin-6-yl]phenyl}carbonyl)piperidin-4-yl]-1-[(2-ethyl-2H-tetrazol-5-yl)methyl]-6-(4-fluorophenyl)thieno[3,2-d]pyrimidine-2,4(1H,3H)-dione] | > 10 | < 10 |
| CCOc1cc2c(cc1OC)C(c1ccc(C(=O)N3CCC(n4c(=O)c5sc(-c6cccc(F)c6F)cc5n(Cc5nnn(CC)n5)c4=O)CC3)cc1)=N[C@@H]1CCSC[C@H]21 [Example 42, 6-(2,3-difluorophenyl)-3-[1-({4-[(4aR,10bR)-9-ethoxy-8-methoxy-3,4,4a,10b-tetrahydro-1H-thiopyrano[4,3-c]isoquinolin-6-yl]phenyl}carbonyl)piperidin-4-yl]-1-[(2-ethyl-2H-tetrazol-5-yl)methyl]thieno[3,2-d]pyrimidine-2,4(1H,3H)-dione] | > 10 | 10 to 100 |
| CCOc1cc2c(cc1OC)C(c1ccc(C(=O)N3CCC(n4c(=O)c5sc(-c6ccc(F)cc6OC)cc5n(Cc5nc(CC)no5)c4=O)CC3)cc1)=N[C@@H]1CCSC[C@H]21 [Example 43, 3-[1-({4-[(4aR,10bR)-9-ethoxy-8-methoxy-3,4,4a,10b-tetrahydro-1H-thiopyrano[4,3-c]isoquinolin-6-yl]phenyl}carbonyl)piperidin-4-yl]-1-[(3-ethyl-1,2,4-oxadiazol-5-yl)methyl]-6-(4-fluoro-2-methoxyphenyl)thieno[3,2-d]pyrimidine-2,4(1H,3H)-dione] | 1 to 10 | 10 to 100 |
| CCOc1cc2c(cc1OC)C(c1ccc(C(=O)N3CCC(n4c(=O)c5sc(-c6ccc(F)cc6OC)cc5n(Cc5nc(COC)no5)c4=O)CC3)cc1)=N[C@@H]1CCSC[C@H]21 [Example 44, 3-[1-({4-[(4aR,10bR)-9-ethoxy-8-methoxy-3,4,4a,10b-tetrahydro-1H-thiopyrano[4,3-c]isoquinolin-6-yl]phenyl}carbonyl)piperidin-4-yl]-6-(4-fluoro-2-methoxyphenyl)-1-{[3-(methoxymethyl)-1,2,4-oxadiazol-5-yl]methyl}thieno[3,2-d]pyrimidine-2,4(1H,3H)-dione] | 1 to 10 | < 10 |
| CCOc1cc2c(cc1OC)C(c1cccc(C(=O)N3CCC(n4c(=O)c5sc(-c6ccc(F)cc6OC)cc5n(Cc5nc(COC)no5)c4=O)CC3)c1)=N[C@@H]1CCSC[C@H]21 [Example 45, 3-[1-({3-[(4aR,10bR)-9-ethoxy-8-methoxy-3,4,4a,10b-tetrahydro-1H-thiopyrano[4,3-c]isoquinolin-6-yl]phenyl}carbonyl)piperidin-4-yl]-6-(4-fluoro-2-methoxyphenyl)-1-{[3-(methoxymethyl)-1,2,4-oxadiazol-5-yl]methyl}thieno[3,2-d]pyrimidine-2,4(1H,3H)-dione] | 1 to 10 | < 10 |
